Source: ChEMBL document CHEMBL3352686, “Development of synthetic lethality anticancer therapeutics” (J Med Chem, 2014)
One block for each compound: values may come before it.

Columns and labels:
Homo sapiens [1] = test: In vivo inhibition of PARP activity in tumor tissue of refractory solid tumor and lymphoma patient at 10 mg dosed twice daily on days 1 to 5 in 21-day cycles co-treated with 50 mg cyclophosphamide once daily administered on days 1 to 5; format: functional
Homo sapiens [2] = test: Toxicity in refractory solid tumor and lymphoma patient at 10 mg dosed twice daily on days 1 to 5 in 21-day cycles co-treated with 50 mg cyclophosphamide once daily administered on days 1 to 5; format: organism-based; settings: in vivo
Homo sapiens [3] = test: Toxicity in refractory solid tumor and lymphoma patient at 10 mg dosed twice daily on days 1 to 5 in 21-day cycles co-treated with 0.6 mg/m2/day, iv topotecan administered on days 1 to 5; format: organism-based; settings: in vivo
[4] = Half life in refractory solid tumor and lymphoma patient; settings: human, in vivo
Homo sapiens [5] = test: In vivo inhibition of PARP activity in peripheral blood mononuclear cells of refractory solid tumor and lymphoma patient at 10 mg dosed twice daily on days 1 to 5 in 21-day cycles co-treated with 50 mg cyclophosphamide once daily administered on days 1 to 5; format: functional
Homo sapiens [6] = test: In vivo inhibition of PARP activity in peripheral blood mononuclear cells of advanced solid tumor patient at 12 mg/m2 co-treated with rucaparib and temzolomide; format: functional
Homo sapiens [7] = species: Homo sapiens; test: Toxicity in patient with refractory acute leukemia; format: organism-based; settings: in vivo
Homo sapiens [8] = species: Homo sapiens; test: Toxicity in patient with solid tumor co-treated with 500 mg/m2 pemetrexed; format: organism-based; settings: in vivo
[9] = Cmax in advanced breast cancer patient with BRCA1/2 mutations at 400 mg dosed twice daily; format: ADME, organism-based; set-up: dose 400 mg; settings: human, in vivo
Homo sapiens [10] = test: In vivo inhibition of PARP activity in peripheral blood mononuclear cells of advanced breast cancer patient with BRCA1/2 mutations at 400 mg dosed twice daily; format: functional
Homo sapiens [11] = test: In vivo inhibition of PARP activity in tumor tissue of advanced breast cancer patient with BRCA1/2 mutations at 400 mg dosed twice daily; format: functional
Homo sapiens [12] = test: Toxicity in advanced breast cancer patient with BRCA1/2 mutations assessed as maximum tolerated dose for twice daily dosing; format: organism-based; settings: in vivo
[13] = Terminal half life in advanced breast cancer patient with BRCA1/2 mutations at 400 mg dosed twice daily; format: ADME, organism-based; settings: human, in vivo, read-out: beta t1/2 (converted)
[14] = Cmax in BRCA mutation carrying cancer patient with sporadic cancer; settings: human, in vivo
[15] = Terminal half life in BRCA mutation carrying cancer patient with sporadic cancer; settings: human, in vivo
[16] = biological target: Serine/threonine-protein kinase mTOR (Homo sapiens, UniProt P42345); test: Inhibition of mTOR (unknown origin)
[17] = biological target: Serine-protein kinase ATM (Homo sapiens, UniProt Q13315); test: Inhibition of ATM (unknown origin)
[18] = Inhibition of PI3K (unknown origin); set-up: species or system Homo sapiens
[19] = biological target: Serine/threonine-protein kinase ATR (Homo sapiens, UniProt Q13535); test: Inhibition of ATR (unknown origin)
[20] = biological target: DNA-dependent protein kinase catalytic subunit (Homo sapiens, UniProt P78527); test: Inhibition of DNAPK (unknown origin)

Serine/threonine-protein kinase ATR, sequence (Q13535 whole entry): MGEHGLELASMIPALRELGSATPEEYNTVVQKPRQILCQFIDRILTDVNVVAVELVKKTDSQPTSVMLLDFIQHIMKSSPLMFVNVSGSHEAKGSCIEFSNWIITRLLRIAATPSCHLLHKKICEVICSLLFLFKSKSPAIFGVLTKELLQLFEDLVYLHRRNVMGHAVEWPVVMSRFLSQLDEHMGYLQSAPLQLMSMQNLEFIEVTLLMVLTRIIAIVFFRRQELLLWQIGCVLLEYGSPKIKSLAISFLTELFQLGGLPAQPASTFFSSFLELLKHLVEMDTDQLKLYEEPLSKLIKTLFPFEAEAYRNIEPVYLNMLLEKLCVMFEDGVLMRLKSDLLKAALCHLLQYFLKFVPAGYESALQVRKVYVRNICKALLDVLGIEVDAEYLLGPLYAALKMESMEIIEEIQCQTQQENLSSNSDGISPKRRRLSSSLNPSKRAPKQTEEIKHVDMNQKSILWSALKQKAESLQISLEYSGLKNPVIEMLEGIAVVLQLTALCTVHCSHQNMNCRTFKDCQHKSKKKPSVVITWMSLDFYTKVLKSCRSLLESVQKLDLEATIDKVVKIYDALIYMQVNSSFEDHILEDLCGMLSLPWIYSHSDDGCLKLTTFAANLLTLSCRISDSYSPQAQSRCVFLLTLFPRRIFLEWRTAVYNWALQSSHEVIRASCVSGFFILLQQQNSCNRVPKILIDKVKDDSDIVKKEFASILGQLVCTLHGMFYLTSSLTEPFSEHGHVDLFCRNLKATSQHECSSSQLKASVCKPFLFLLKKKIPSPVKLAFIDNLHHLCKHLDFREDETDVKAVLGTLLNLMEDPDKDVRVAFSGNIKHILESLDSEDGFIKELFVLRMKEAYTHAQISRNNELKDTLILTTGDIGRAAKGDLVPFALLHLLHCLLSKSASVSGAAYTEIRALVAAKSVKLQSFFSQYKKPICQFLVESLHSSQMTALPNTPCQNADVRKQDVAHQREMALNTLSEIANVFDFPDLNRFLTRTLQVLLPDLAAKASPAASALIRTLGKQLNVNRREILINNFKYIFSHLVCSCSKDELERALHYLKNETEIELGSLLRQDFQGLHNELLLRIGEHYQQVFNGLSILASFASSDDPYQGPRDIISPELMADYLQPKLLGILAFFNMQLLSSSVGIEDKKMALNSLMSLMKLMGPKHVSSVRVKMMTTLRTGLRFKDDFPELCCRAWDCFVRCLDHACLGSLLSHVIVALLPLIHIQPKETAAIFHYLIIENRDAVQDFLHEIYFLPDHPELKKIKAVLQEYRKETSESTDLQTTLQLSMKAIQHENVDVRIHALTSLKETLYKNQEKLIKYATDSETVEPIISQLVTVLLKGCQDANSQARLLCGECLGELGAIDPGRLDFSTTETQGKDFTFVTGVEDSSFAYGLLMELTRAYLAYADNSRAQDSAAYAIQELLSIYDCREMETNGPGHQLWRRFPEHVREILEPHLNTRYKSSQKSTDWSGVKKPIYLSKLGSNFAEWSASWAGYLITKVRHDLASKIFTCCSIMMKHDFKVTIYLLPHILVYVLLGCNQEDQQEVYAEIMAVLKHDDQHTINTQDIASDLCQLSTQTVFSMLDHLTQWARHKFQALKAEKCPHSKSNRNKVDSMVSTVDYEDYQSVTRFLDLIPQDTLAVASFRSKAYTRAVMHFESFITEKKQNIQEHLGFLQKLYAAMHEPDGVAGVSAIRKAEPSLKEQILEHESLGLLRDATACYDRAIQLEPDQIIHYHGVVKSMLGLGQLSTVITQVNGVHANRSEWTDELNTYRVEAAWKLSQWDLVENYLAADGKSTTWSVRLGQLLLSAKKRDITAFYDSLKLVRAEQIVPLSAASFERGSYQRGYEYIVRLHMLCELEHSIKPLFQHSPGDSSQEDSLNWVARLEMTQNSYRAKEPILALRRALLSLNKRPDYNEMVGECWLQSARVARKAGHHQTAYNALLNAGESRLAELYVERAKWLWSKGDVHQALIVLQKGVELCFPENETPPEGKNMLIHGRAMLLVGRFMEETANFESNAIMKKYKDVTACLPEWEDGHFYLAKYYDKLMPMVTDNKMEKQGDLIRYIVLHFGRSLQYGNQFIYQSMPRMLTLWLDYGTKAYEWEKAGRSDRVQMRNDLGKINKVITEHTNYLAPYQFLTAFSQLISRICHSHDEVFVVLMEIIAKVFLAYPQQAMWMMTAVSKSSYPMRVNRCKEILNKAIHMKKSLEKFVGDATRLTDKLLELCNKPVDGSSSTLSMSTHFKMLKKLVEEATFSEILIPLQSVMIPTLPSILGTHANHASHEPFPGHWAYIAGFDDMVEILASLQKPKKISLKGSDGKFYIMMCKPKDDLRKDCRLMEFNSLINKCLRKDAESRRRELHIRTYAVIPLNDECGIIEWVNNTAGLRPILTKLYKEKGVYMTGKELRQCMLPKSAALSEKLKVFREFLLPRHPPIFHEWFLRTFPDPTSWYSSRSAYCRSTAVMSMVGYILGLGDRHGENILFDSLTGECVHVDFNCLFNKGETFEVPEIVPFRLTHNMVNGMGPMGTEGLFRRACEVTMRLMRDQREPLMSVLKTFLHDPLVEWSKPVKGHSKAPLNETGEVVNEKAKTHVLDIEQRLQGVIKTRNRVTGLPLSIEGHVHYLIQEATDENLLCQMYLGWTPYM

SMILES: C[C@]1(c2nc3c(C(N)=O)cccc3[nH]2)CCCN1 [VELIPARIB]
inhibition (INH) (Homo sapiens [1]): 80% | MTD (Homo sapiens [2]): 60 mg | MTD (Homo sapiens [3]): 60 mg | half-life [4]: 5 h | inhibition (INH) (Homo sapiens [5]): 50%

SMILES: CNCc1ccc(-c2[nH]c3cc(F)cc4c3c2CCNC4=O)cc1 [RUCAPARIB]
inhibition in vivo at 12 mg/m2 (Homo sapiens [6]): 74%

SMILES: Cn1cc(C2C=NN3C(N)=C(Br)C([C@@H]4CCCNC4)=NC23)cn1 (stereo not given in full)
MTD (Homo sapiens [7]): 56 mg/m2

SMILES: Cc1cnc(NC(=O)Nc2cc(Br)c(C)cc2OC[C@@H]2CNCCO2)cn1 [RABUSERTIB]
MTD (Homo sapiens [8]): 150 mg/m2

SMILES: O=C(c1cc(Cc2n[nH]c(=O)c3ccccc23)ccc1F)N1CCN(C(=O)C2CC2)CC1 [OLAPARIB]
Cmax [9]: 2600 ng/mL | inhibition (INH) (Homo sapiens [10]): 50% | inhibition (INH) (Homo sapiens [11]): 70% | MTD (Homo sapiens [12]): 400 mg | half-life [13]: 7 h

Cmax [14]: 2000 nM | half-life [15]: 36.4 h
SMILES: NC(=O)c1cccc2cn(-c3ccc([C@@H]4CCCNC4)cc3)nc12 [NIRAPARIB]

IC50 [16]: 0.6 nM | IC50 [17]: > 36 nM | IC50 [18]: > 36 nM | IC50 [19]: 14 nM | IC50 [20]: > 36 nM
SMILES: CC(C)(C#N)c1ccc(N2C(=O)OCc3cnc4ccc(-c5cnc6ccccc6c5)cc4c32)cc1
